Measured values reported in article PMC5224969 (ChemMedChem, 2016).
Like-named read-outs stand apart in the source and are kept apart here.

Assays:
BV-173 cells = assay: MTT cell viability assay, BV-173; assay type: cell-based, human; details: read-out: IC50 BV-173
Panc-1 cells = assay: MTT cell viability assay, Panc-1; assay type: cell-based, human
K562 cells = assay: MTT cell viability assay, K562; assay type: cell-based, human; details: read-out: IC50 K562
Abl [1] = molecular target: T1, Abl (Homo sapiens, UniProt P00519); assay: standard P32 kinase assay, IC50, Abl; assay type: biochemical; details: for Net change in IC50 (%Dasatinib) Abl: compared to dasatinib; for IC50: read-out: IC50 Abl, P32 kinase assay, CrkL substrate, 200 μM ATP
T1 sequence (P00519 whole entry, species assumed): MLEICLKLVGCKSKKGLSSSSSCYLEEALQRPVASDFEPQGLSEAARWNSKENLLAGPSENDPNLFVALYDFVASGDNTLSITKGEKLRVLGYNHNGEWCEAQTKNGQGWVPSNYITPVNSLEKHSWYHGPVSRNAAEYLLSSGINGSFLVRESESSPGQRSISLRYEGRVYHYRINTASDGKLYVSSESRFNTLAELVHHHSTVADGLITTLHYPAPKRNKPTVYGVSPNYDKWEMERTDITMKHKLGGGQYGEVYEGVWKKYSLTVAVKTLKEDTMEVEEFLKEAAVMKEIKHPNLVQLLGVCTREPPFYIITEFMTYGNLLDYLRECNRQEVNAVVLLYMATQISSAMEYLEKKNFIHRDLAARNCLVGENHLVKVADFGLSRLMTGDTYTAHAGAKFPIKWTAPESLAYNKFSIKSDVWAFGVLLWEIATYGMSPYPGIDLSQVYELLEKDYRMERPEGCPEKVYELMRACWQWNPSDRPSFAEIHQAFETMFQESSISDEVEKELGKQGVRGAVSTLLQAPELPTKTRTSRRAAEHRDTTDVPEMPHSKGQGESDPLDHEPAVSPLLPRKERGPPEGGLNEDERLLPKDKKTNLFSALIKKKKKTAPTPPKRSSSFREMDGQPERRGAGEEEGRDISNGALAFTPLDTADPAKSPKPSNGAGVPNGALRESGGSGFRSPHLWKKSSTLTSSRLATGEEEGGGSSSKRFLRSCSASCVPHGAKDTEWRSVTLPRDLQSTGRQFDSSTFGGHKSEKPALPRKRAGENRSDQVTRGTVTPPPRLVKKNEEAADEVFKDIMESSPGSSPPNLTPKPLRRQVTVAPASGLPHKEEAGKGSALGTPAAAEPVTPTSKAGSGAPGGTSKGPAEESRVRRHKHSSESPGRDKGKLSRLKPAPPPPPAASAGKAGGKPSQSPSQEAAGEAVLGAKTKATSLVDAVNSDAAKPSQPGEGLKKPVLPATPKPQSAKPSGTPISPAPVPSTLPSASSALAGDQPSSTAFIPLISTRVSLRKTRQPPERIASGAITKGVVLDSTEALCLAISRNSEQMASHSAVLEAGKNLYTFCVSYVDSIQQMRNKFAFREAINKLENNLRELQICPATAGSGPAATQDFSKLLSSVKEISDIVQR

Csk = Csk (Homo sapiens, UniProt P41240); assay: standard P32 kinase assay, IC50, Csk; assay type: biochemical; details: for Net change in IC50 (%Dasatinib) Csk: compared to dasatinib; for IC50: read-out: IC50 Csk, P32 kinase assay, polyE4Y substrate, 200 μM ATP
Csk, sequence (P41240 whole entry, species assumed): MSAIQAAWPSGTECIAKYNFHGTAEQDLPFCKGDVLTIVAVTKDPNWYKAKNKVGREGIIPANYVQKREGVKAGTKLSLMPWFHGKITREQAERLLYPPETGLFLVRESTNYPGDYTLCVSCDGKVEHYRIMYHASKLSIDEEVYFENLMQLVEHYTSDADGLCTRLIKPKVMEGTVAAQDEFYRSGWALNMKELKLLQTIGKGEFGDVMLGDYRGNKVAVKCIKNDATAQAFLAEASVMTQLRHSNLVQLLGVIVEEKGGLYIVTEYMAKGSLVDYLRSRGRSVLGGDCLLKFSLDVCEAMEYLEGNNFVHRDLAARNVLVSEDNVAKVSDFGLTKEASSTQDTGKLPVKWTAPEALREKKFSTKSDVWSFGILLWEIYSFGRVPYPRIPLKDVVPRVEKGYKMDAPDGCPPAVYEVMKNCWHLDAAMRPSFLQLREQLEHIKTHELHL

[2] = system: PTK panel (Abl, Csk, Src); assay: P32 kinase assay, average over the PTK panel; assay type: biochemical; details: average of Abl, compared to dasatinib
Src [3] = molecular target: T2, Src (Homo sapiens, UniProt P12931); assay: standard P32 kinase assay, IC50, Src catalytic domain; assay type: biochemical; details: for Net change in IC50 (%Dasatinib) Src: compared to dasatinib; for IC50: read-out: IC50 Src, P32 kinase assay, polyE4Y substrate, 200 μM ATP
T2 sequence (P12931 270-523 limits assumed, species assumed): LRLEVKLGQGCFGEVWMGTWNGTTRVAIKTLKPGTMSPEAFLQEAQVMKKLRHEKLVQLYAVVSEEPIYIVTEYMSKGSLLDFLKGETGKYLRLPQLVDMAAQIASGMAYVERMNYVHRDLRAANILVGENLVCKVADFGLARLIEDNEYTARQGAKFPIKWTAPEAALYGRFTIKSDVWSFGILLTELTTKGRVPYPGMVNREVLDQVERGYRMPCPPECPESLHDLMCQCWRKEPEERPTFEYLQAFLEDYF

Src [4] = molecular target: T2, Src; assay: screening at a fixed concentration against Src; assay type: biochemical; details: fixed concentration 250 pM
Abl [5] = molecular target: T1, Abl; assay: screening at a fixed concentration against Abl; assay type: biochemical; details: fixed concentration 250 pM
[6] = stability in mouse plasma, LC/MS/MS; assay type: in vitro ADME

Cc1nc(Nc2ncc(C(=O)Nc3c(C)cccc3Cl)s2)cc(N2CCN(CCO)CC2)n1 [Compound 1, N-(2-chloro-6-methylphenyl)-2-((6-(4-(2-hydroxyethyl)piperazin-1-yl)-2-methylpyrimidin-4-yl)amino)thiazole-5-carboxamide, reference compound]
IC50 (BV-173 cells; Homo sapiens, BV-173, 72 h): < 0.0512 nM
IC50 (Panc-1 cells; Homo sapiens, PANC-1, 72 h, read-out: IC50 Panc-1): 26300 nM
IC50 (K562 cells; Homo sapiens, K562, 72 h): < 0.0512 nM

Cc1nc(Nc2ncc(C(=O)Nc3c(C)cccc3Cl)s2)cc(N2CCN(CCOC(=O)[C@H](C)N)CC2)n1 [Compound 3]
Selectivity A/S (ratio of IC50 Abl over Src) (Abl [1]): > 7.7
Net change in IC50 (%Dasatinib) Abl (Abl [1]): 285%
IC50 (Abl [1]): 3 nM
Selectivity C/A (ratio of IC50 Csk over Abl) (Csk): 7.0
Selectivity C/S (ratio of IC50 Csk over Src) (Csk): > 53.8
Net change in IC50 (%Dasatinib) Csk (Csk): 200%
IC50 (Csk): 21 nM
Net change in IC50 (%Dasatinib) Avg [2]: 163%
Net change in IC50 (%Dasatinib) Src (Src [3]): 5%
IC50 (Src [3]): < 0.39 nM

CC(=O)OCCN1CCN(c2cc(Nc3ncc(C(=O)Nc4c(C)cccc4Cl)s3)nc(C)n2)CC1 [Compound 16]
Selectivity A/S (ratio of IC50 Abl over Src) (Abl [1]): > 6.4
Net change in IC50 (%Dasatinib) Abl (Abl [1]): 169%
IC50 (Abl [1]): 2.1 nM
inhibition relative to dasatinib, Src (Src [4]): inhibited comparably to dasatinib
inhibition relative to dasatinib, Abl (Abl [5]): inhibited comparably to dasatinib
Selectivity C/A (ratio of IC50 Csk over Abl) (Csk): 2.6
Selectivity C/S (ratio of IC50 Csk over Src) (Csk): > 16.7
Net change in IC50 (%Dasatinib) Csk (Csk): −21%
IC50 (Csk): 5.5 nM
stability in mouse plasma ([6]; 0, 15, 30, 60, 120 min, dasatinib formation monitored): completely metabolized
T1/2 in mouse plasma ([6]; 0-120 min incubation): < 5 min
IC50 (BV-173 cells; MTT, 72 h): < 0.0512 nM
IC50 Panc-1 (Panc-1 cells; MTT, 72 h): no activity
Net change in IC50 (%Dasatinib) Avg [2]: 46%
Net change in IC50 (%Dasatinib) Src (Src [3]): −11%
IC50 (Src [3]): < 0.33 nM
IC50 (K562 cells; MTT, 72 h): < 0.0512 nM

CN[C@@H]1C[C@H]2O[C@@](C)([C@@H]1OC)n1c3ccccc3c3c4c(c5c6ccccc6n2c5c31)C(=O)NC4 [Staurosporine, staurosporine]
IC50 (BV-173 cells; Homo sapiens, BV-173, 72 h): 4.77 nM
